pEC50, pIC50: −log10 of the molar value.
Key:
Plasmodium falciparum [1] = assay: MMV: Inhibition of Plasmodium falciparum 3D7 at 5uM compound concentration.; assay type: functional
Leishmania infantum = assay: MMV: Inhibition of Leishmania infantum (MHOM/MA/BE/67) in vitro.; assay type: functional, organism-based
Trypanosoma cruzi = assay: MMV: Inhibition of Trypanosoma cruzi (Tulahuen C4 LacZ) (Chagas in vitro).; assay type: functional, organism-based
[2] = MMV: Cytotoxicity against human fibroblasts (MRC-5) cells.; conditions: MRC-5 cells (human fibroblasts)
Plasmodium falciparum [3] = assay: MMV: Inhibition of Plasmodium falciparum 3D7 (EC50).; assay type: functional, organism-based
[4] = test system: Trypanosoma brucei brucei; assay: MMV: Inhibition of Trypanosoma brucei brucei (Squib 427) (HAT in vitro).; assay type: functional, organism-based
[5] = test system: Trypanosoma brucei rhodesiense; assay: MMV: Inhibition of Trypanosoma brucei rhodesiense (STIB 900) (HAT in vitro).; assay type: functional, organism-based
Plasmodium falciparum [6] = assay: MMV: Inhibition of Plasmodium falciparum K1 (EC50).; assay type: functional, organism-based

In the case of `COc1ccc(-n2ccnc2SCC(=O)Nc2cc(C)ccc2C)c(OC)c1`, the inhibition at 5 µM (Plasmodium falciparum [1]) was 95%, the pIC50 (Leishmania infantum) was less than 4.49 and the pIC50 (Trypanosoma cruzi) was 4.61. For the same molecule, the pIC50 [2] was less than 4.49, the pEC50 (Plasmodium falciparum [3]) was 6.77 and the pIC50 [4] was less than 4.49. For the same molecule, the pIC50 [5] was 4.68 and the pEC50 (Plasmodium falciparum [6]) was 6.41.
Molecule `COc1ccc(N2CCN(C(CNC(=O)C3CCCCC3)c3ccc4c(c3)OCO4)CC2)cc1` (stereo not given) has an inhibition at 5 µM (Plasmodium falciparum [1]) of 97%, a pIC50 (Leishmania infantum) of less than 4.49 and a pIC50 (Trypanosoma cruzi) of 4.59. For the same molecule, the pIC50 [2] was less than 4.49, the pEC50 (Plasmodium falciparum [3]) was 5.95 and the pIC50 [4] was less than 4.49. The pIC50 [5] was 4.65 and the pEC50 (Plasmodium falciparum [6]) was 6.01.
`CN(C)CCCNCc1ccc(-c2ccc(F)c(Cl)c2)o1` showed an inhibition at 5 µM (Plasmodium falciparum [1]) of 96%, a pIC50 (Leishmania infantum) of 5.38 and a pIC50 (Trypanosoma cruzi) of 5.41. It also gave a pIC50 [2] of 4.76, a pEC50 (Plasmodium falciparum [3]) of 6.06 and a pIC50 [4] of 6.73. It also gave a pIC50 [5] greater than 6.90 and a pEC50 (Plasmodium falciparum [6]) of 6.12.
For `Cn1c(=O)c2cc(C(=O)NCCCN3CCCCCC3)sc2c2ccccc21`, the inhibition at 5 µM (Plasmodium falciparum [1]) was 97%, the pIC50 (Leishmania infantum) was less than 4.49 and the pIC50 (Trypanosoma cruzi) was less than 4.49. It also gave a pIC50 [2] of less than 4.49, a pEC50 (Plasmodium falciparum [3]) of 6.17 and a pIC50 [4] of less than 4.49. For the same molecule, the pIC50 [5] was 4.76 and the pEC50 (Plasmodium falciparum [6]) was 6.24.
In the case of `Cc1sc2ncnc(Sc3nc4ccccc4[nH]3)c2c1C`, the inhibition at 5 µM (Plasmodium falciparum [1]) was 100%, the pIC50 (Leishmania infantum) was less than 4.49 and the pIC50 (Trypanosoma cruzi) was less than 4.49. It also gave a pIC50 [2] of less than 4.49, a pEC50 (Plasmodium falciparum [3]) of 6.21 and a pIC50 [4] of less than 4.49. The pIC50 [5] was less than 4.49 and the pEC50 (Plasmodium falciparum [6]) was 6.24.
With `CC1CN(C(=O)c2sc3ccccc3c2Cl)CC(C)O1` (stereo not given) the inhibition at 5 µM (Plasmodium falciparum [1]) was 95%, the pIC50 (Leishmania infantum) was less than 4.49 and the pIC50 (Trypanosoma cruzi) was less than 4.49. It also gave a pIC50 [2] of less than 4.49, a pEC50 (Plasmodium falciparum [3]) of 7.59 and a pIC50 [4] of less than 4.49. For the same molecule, the pIC50 [5] was less than 4.49 and the pEC50 (Plasmodium falciparum [6]) was 6.71.
In the case of `c1ccc2c(NCCCCCCNc3c4c(nc5ccccc35)CCCC4)c3c(nc2c1)CCCC3`, the inhibition at 5 µM (Plasmodium falciparum [1]) was 100%, the pIC50 (Leishmania infantum) was 5.99 and the pIC50 (Trypanosoma cruzi) was 5.92. The pIC50 [2] was 5.39, the pEC50 (Plasmodium falciparum [3]) was 6.42 and the pIC50 [4] was 5.99. The pIC50 [5] was 6.10 and the pEC50 (Plasmodium falciparum [6]) was 5.87.
`CCC1(C)CC(CCNCc2ccccc2O)(c2ccc(C)cc2)CCO1` (stereo not given) gave an inhibition at 5 µM (Plasmodium falciparum [1]) of 97%, a pIC50 (Leishmania infantum) of 5.36 and a pIC50 (Trypanosoma cruzi) of 4.80. For the same molecule, the pIC50 [2] was 4.79, the pEC50 (Plasmodium falciparum [3]) was 6.85 and the pIC50 [4] was 5.52. For the same molecule, the pIC50 [5] was 6.00 and the pEC50 (Plasmodium falciparum [6]) was 7.43.
`O=C(NC1CCN(Cc2ccccc2)CC1)c1cc(C(=O)NC2CCN(Cc3ccccc3)CC2)cc(C(=O)NC2CCN(Cc3ccccc3)CC2)c1` showed an inhibition at 5 µM (Plasmodium falciparum [1]) of 98%, a pIC50 (Leishmania infantum) of 5.39 and a pIC50 (Trypanosoma cruzi) of 4.60. The pIC50 [2] was less than 4.49, the pEC50 (Plasmodium falciparum [3]) was 6.19 and the pIC50 [4] was 5.39. For the same molecule, the pIC50 [5] was 5.55 and the pEC50 (Plasmodium falciparum [6]) was 6.03.
Molecule `CCn1c(CN2CCN(Cc3ccccc3)CC2)nc2cc(NC(=O)c3cccs3)ccc21` has an inhibition at 5 µM (Plasmodium falciparum [1]) of 97%, a pIC50 (Leishmania infantum) of 4.65 and a pIC50 (Trypanosoma cruzi) of 4.89. For the same molecule, the pIC50 [2] was less than 4.49, the pEC50 (Plasmodium falciparum [3]) was 6.29 and the pIC50 [4] was less than 4.49. For the same molecule, the pIC50 [5] was 4.81 and the pEC50 (Plasmodium falciparum [6]) was 6.38.
Work on `CCN(Cc1ccccc1)C1CCN(Cc2cc(Br)ccc2O)CC1` yielded an inhibition at 5 µM (Plasmodium falciparum [1]) of 97%, a pIC50 (Leishmania infantum) of 4.80 and a pIC50 (Trypanosoma cruzi) of 4.93. It also gave a pIC50 [2] of less than 4.49, a pEC50 (Plasmodium falciparum [3]) of 6.20 and a pIC50 [4] of 4.96. It also gave a pIC50 [5] of 4.94 and a pEC50 (Plasmodium falciparum [6]) of 6.73.
Molecule `Cc1ccc(C)c(Cn2c(N3CCC(C(=O)NCc4cccs4)CC3)nc3ccccc32)c1` has an inhibition at 5 µM (Plasmodium falciparum [1]) of 97%, a pIC50 (Leishmania infantum) of 4.76 and a pIC50 (Trypanosoma cruzi) of 5.06. For the same molecule, the pIC50 [2] was less than 4.49, the pEC50 (Plasmodium falciparum [3]) was 5.88 and the pIC50 [4] was 5.16. For the same molecule, the pIC50 [5] was 5.41 and the pEC50 (Plasmodium falciparum [6]) was 5.78.
`Clc1cc(Br)ccc1-c1ccc(CNCC2CCNCC2)o1` gave an inhibition at 5 µM (Plasmodium falciparum [1]) of 96%, a pIC50 (Leishmania infantum) of 6.00 and a pIC50 (Trypanosoma cruzi) of 6.00. For the same molecule, the pIC50 [2] was 5.39, the pEC50 (Plasmodium falciparum [3]) was 6.10 and the pIC50 [4] was greater than 6.90. It also gave a pIC50 [5] greater than 6.90 and a pEC50 (Plasmodium falciparum [6]) of 5.79.
In the case of `CNCCCNc1ccnc2cc(Cl)ccc12`, the inhibition at 5 µM (Plasmodium falciparum [1]) was 98%, the pIC50 (Leishmania infantum) was 4.79 and the pIC50 (Trypanosoma cruzi) was 4.78. The pIC50 [2] was less than 4.49, the pEC50 (Plasmodium falciparum [3]) was 7.09 and the pIC50 [4] was 5.42. The pIC50 [5] was 5.41 and the pEC50 (Plasmodium falciparum [6]) was 6.00.
Work on `O=C(Nc1ccc(N2CCCCC2)c(Cl)c1)c1ccc(Br)o1` yielded an inhibition at 5 µM (Plasmodium falciparum [1]) of 96%, a pIC50 (Leishmania infantum) of less than 4.49 and a pIC50 (Trypanosoma cruzi) of 4.83. It also gave a pIC50 [2] of 4.57, a pEC50 (Plasmodium falciparum [3]) of 6.13 and a pIC50 [4] of 4.82. For the same molecule, the pIC50 [5] was 4.87 and the pEC50 (Plasmodium falciparum [6]) was 5.84.
